Inconclusive results and toxic doses are left out. How the source made its calls: active means survival T/C of 150% or more; inactive means T/C below 125% in these data.
Tested on: CD2F1 mice, L1210 leukemia ip, survival T/C
Assay: NCI In Vivo Anticancer Drug Screen. Data for tumor model L1210 Leukemia (intraperitoneal) in CD2F1 (CDF1) mice
Settings: endpoint: mean survival time, higher = longer survival
In short: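 Vehicle-treated tumor-bearing mice served as controls (C) for compound-treated mice (T). Reported figure is T divided by C.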

[1] = dose: 50.0 mg/kg/injection, schedule: Q01DX009 (ip), vehicle: Klucel (hydroxypropylcellulose) (HPC)
[2] = dose: 100.0 mg/kg/injection, schedule: Q01DX009 (ip), vehicle: Klucel (hydroxypropylcellulose) (HPC)
[3] = dose: 200.0 mg/kg/injection, schedule: Q01DX009 (ip), vehicle: Klucel (hydroxypropylcellulose) (HPC)
[4] = dose: 400.0 mg/kg/injection, schedule: Q01DX009 (ip), vehicle: Klucel (hydroxypropylcellulose) (HPC)
[5] = dose: 100.0 mg/kg/injection, schedule: Q01DX009 (ip), vehicle: saline with Tween-80
[6] = dose: 200.0 mg/kg/injection, schedule: Q01DX009 (ip), vehicle: saline with Tween-80
[7] = dose: 400.0 mg/kg/injection, schedule: Q01DX009 (ip), vehicle: saline with Tween-80
[8] = dose: 400.0 mg/kg/injection, schedule: Q01DX001 (ip), vehicle: saline

Measured: T/C

CCC(c1ccccc1)C(CC)c1ccc(N(C)C)cc1 (stereo unspecified)
inactive: [1] 95 % of control | [2] 94 % of control | [3] 91 % of control | [4] 97 % of control

O=C1NC(c2ccccc2Cl)Nc2ccccc21 (stereo unspecified)
inactive: [1] 91 % of control | [2] 107 % of control | [3] 93 % of control | [4] 93 % of control

CCCCCCCCC/C(=N\Nc1ccc([N+](=O)[O-])cc1[N+](=O)[O-])c1ccccc1
inactive: [5] 97 % of control | [6] 87 % of control | [7] 94 % of control

CCCCCCCCCC(O)CCCCCCCCC
inactive: dose: 100.0 mg/kg/injection, schedule: Q01DX009 (ip), vehicle: other 102 % of control | dose: 100.0 mg/kg/injection, schedule: Q04DX003 (ip), vehicle: other 103 % of control | dose: 200.0 mg/kg/injection, schedule: Q01DX009 (ip), vehicle: other 91 % of control | dose: 200.0 mg/kg/injection, schedule: Q04DX003 (ip), vehicle: other 94 % of control | dose: 400.0 mg/kg/injection, schedule: Q01DX009 (ip), vehicle: other 91 % of control | dose: 400.0 mg/kg/injection, schedule: Q04DX003 (ip), vehicle: other 94 % of control

CCCC(CCC)(CNC(C)=O)C1CCCCC1
inactive: dose: 75.0 mg/kg/injection, schedule: Q01DX001 (ip), vehicle: saline 98 % of control | dose: 150.0 mg/kg/injection, schedule: Q01DX001 (ip), vehicle: saline 88 % of control | dose: 300.0 mg/kg/injection, schedule: Q01DX001 (ip), vehicle: saline 87 % of control

C1COC2(CCC3(CC2)OCCO3)O1
inactive: [5] 102 % of control | dose: 100.0 mg/kg/injection, schedule: Q04DX003 (ip), vehicle: saline sonified 101 % of control | [6] 102 % of control | dose: 200.0 mg/kg/injection, schedule: Q04DX003 (ip), vehicle: saline sonified 101 % of control | [7] 103 % of control | dose: 400.0 mg/kg/injection, schedule: Q04DX003 (ip), vehicle: saline sonified 100 % of control

Cc1cc(=O)[nH]c2[nH]c(=O)ccc12
inactive: dose: 100.0 mg/kg/injection, schedule: Q01DX001 (ip), vehicle: saline 100 % of control | dose: 200.0 mg/kg/injection, schedule: Q01DX001 (ip), vehicle: saline 96 % of control | [8] 96 % of control

O=c1c(O)c(-c2cc(O)c(O)c(O)c2)oc2cc(O)cc(O)c12
inactive: dose: 25.0 mg/kg/injection, schedule: Q01DX009 (ip), vehicle: saline with Tween-80 98 % of control | dose: 50.0 mg/kg/injection, schedule: Q01DX009 (ip), vehicle: saline with Tween-80 91 % of control | [5] 93 % of control | [6] 95 % of control

O=C1C=C(c2ccccc2)C(O)(c2ccccc2)/C1=C/c1ccccc1 (stereo unspecified)
inactive: dose: 100.0 mg/kg/injection, schedule: Q04DX002 (ip), vehicle: saline with Tween-80 87 % of control | dose: 200.0 mg/kg/injection, schedule: Q04DX002 (ip), vehicle: saline with Tween-80 88 % of control

CC(=O)Nn1cnc2c(SCc3ccccc3)ncnc21
inactive: dose: 177.0 mg/kg/injection, schedule: Q01DX001 (ip), vehicle: saline 95 % of control | dose: 266.0 mg/kg/injection, schedule: Q01DX001 (ip), vehicle: saline 95 % of control | [8] 97 % of control | dose: 600.0 mg/kg/injection, schedule: Q01DX001 (ip), vehicle: saline 96 % of control

O=C(O)C(O)CBr (stereo unspecified)
inactive: dose: 12.5 mg/kg/injection, schedule: Q04DX003 (ip), vehicle: saline 101 % of control | dose: 25.0 mg/kg/injection, schedule: Q04DX003 (ip), vehicle: saline 106 % of control | dose: 50.0 mg/kg/injection, schedule: Q04DX003 (ip), vehicle: saline 106 % of control

OC1CCCCC1O (stereo unspecified)
inactive: dose: 100.0 mg/kg/injection, schedule: Q04DX003 (ip), vehicle: saline with Tween-80 101 % of control | dose: 200.0 mg/kg/injection, schedule: Q04DX003 (ip), vehicle: saline with Tween-80 100 % of control | dose: 400.0 mg/kg/injection, schedule: Q04DX003 (ip), vehicle: saline with Tween-80 103 % of control

COCc1c(C)c(C)c(COC)c(C)c1C
inactive: dose: 50.0 mg/kg/injection, schedule: Q01DX009 (ip), vehicle: saline 95 % of control | dose: 100.0 mg/kg/injection, schedule: Q01DX009 (ip), vehicle: saline 97 % of control | dose: 200.0 mg/kg/injection, schedule: Q01DX009 (ip), vehicle: saline 88 % of control

COC1OC(CO)C(OC)C(OC)C1NC(C)=O (stereo unspecified)
inactive: dose: 100.0 mg/kg/injection, schedule: Q01DX001 (ip), vehicle: saline + alcohol 101 % of control | dose: 200.0 mg/kg/injection, schedule: Q01DX001 (ip), vehicle: saline + alcohol 103 % of control | dose: 400.0 mg/kg/injection, schedule: Q01DX001 (ip), vehicle: saline + alcohol 97 % of control

— PubChem BioAssay AID256 (DTP/NCI, 2004)
